Species: Rattus norvegicus
Assay: Open TG-GATES - Regimen: Single
Type: toxicity, organism-based, Sprague-Dawley
Design: regimen Single, gender Male, age 6 weeks
Settings: in vivo, po, 0 mg/kg, route gavage, dose level Control; for APTT / Bas / Eos / Fbg / Hb / Ht / Lym / MCH / MCHC / MCV / Mono / Neu / PT / Plat / RBC / Ret / WBC: tissue Blood; for KIDNEY_L / KIDNEY_R / KIDNEY_TOTAL: tissue Kidney; for LIVER: tissue Liver; for A/G / ALP / ALT / AST / BUN / CRE / Ca / Cl / DBIL / GLC / IP / K / LDH / Na / PL / RALB / TBIL / TC / TG / TP / gamma-GTP: tissue Plasma

## O=C(N[C@H](CO)[C@H](O)c1ccc([N+](=O)[O-])cc1)C(Cl)Cl [CHLORAMPHENICOL]
3 h
  TERMINAL_BW: 223.3 g
  APTT: 17.4 s
  Bas: 0%
  Eos: 1%
  Fbg: 266.4 mg/dL
  Hb: 13.2 g/dL
  Ht: 38.7%
  Lym: 79.8%
  MCH: 21.8 pg
  MCHC: 34.2%
  MCV: 63.8 fL
  Mono: 3.8%
  Neu: 15.2%
  PT: 14.3 s
  Plat: 115.3 x10_4/uL
  RBC: 607 x10_4/ul
  Ret: 8.3%
  WBC: 80.9 x10_2/uL
  KIDNEY_L: 0.9 g
  KIDNEY_R: 0.9 g
  KIDNEY_TOTAL: 1.8 g
  LIVER: 10.1 g
  A/G: 0.9
  ALP: 1566 IU/L
  ALT: 41.4 IU/L
  AST: 73.8 IU/L
  BUN: 9.4 mg/dL
  CRE: 0.2 mg/dL
  Ca: 11.6 mg/dL
  Cl: 105 meq/L
  DBIL: 0.012 mg/dL
  GLC: 184.2 mg/dL
  IP: 8.6 mg/dL
  K: 4.2 meq/L
  LDH: 57.6 IU/L
  Na: 139.8 meq/L
  PL: 136.2 mg/dL
  RALB: 2.5 g/dL
  TBIL: 0.062 mg/dL
  TC: 74.6 mg/dL
  TG: 66.4 mg/dL
  TP: 5.3 g/dL
  gamma-GTP: 1.2 IU/L
6 h
  TERMINAL_BW: 222.3 g
  APTT: 17.1 s
  Bas: 0%
  Eos: 0.8%
  Fbg: 262.8 mg/dL
  Hb: 13.3 g/dL
  Ht: 42.9%
  Lym: 72.2%
  MCH: 21.6 pg
  MCHC: 30.9%
  MCV: 70.1 fL
  Mono: 2.6%
  Neu: 24.2%
  PT: 14.6 s
  Plat: 109 x10_4/uL
  RBC: 613.2 x10_4/ul
  Ret: 8.2%
  WBC: 60.2 x10_2/uL
  KIDNEY_L: 0.9 g
  KIDNEY_R: 0.9 g
  KIDNEY_TOTAL: 1.8 g
  LIVER: 9.4 g
  A/G: 0.9
  ALP: 1343.8 IU/L
  ALT: 38.8 IU/L
  AST: 71.2 IU/L
  BUN: 8.8 mg/dL
  CRE: 0.2 mg/dL
  Ca: 11.6 mg/dL
  Cl: 105.2 meq/L
  DBIL: 0.014 mg/dL
  GLC: 187.6 mg/dL
  IP: 10.4 mg/dL
  K: 4.2 meq/L
  LDH: 62.8 IU/L
  Na: 141.8 meq/L
  PL: 136.2 mg/dL
  RALB: 2.5 g/dL
  TBIL: 0.064 mg/dL
  TC: 73.6 mg/dL
  TG: 72.2 mg/dL
  TP: 5.5 g/dL
  gamma-GTP: 1.4 IU/L
9 h
  TERMINAL_BW: 222.7 g
  APTT: 16.3 s
  Bas: 0%
  Eos: 1%
  Fbg: 256.4 mg/dL
  Hb: 13.5 g/dL
  Ht: 42.9%
  Lym: 71.2%
  MCH: 21.5 pg
  MCHC: 31.5%
  MCV: 68.1 fL
  Mono: 2.6%
  Neu: 25%
  PT: 14.5 s
  Plat: 114.3 x10_4/uL
  RBC: 630.2 x10_4/ul
  Ret: 8.4%
  WBC: 69.8 x10_2/uL
  KIDNEY_L: 0.9 g
  KIDNEY_R: 0.9 g
  KIDNEY_TOTAL: 1.9 g
  LIVER: 8.8 g
  A/G: 0.9
  ALP: 1165.4 IU/L
  ALT: 36 IU/L
  AST: 67.8 IU/L
  BUN: 8.6 mg/dL
  CRE: 0.2 mg/dL
  Ca: 11.2 mg/dL
  Cl: 105.4 meq/L
  DBIL: 0.012 mg/dL
  GLC: 192.6 mg/dL
  IP: 10.4 mg/dL
  K: 4.1 meq/L
  LDH: 74.4 IU/L
  Na: 140.6 meq/L
  PL: 145.8 mg/dL
  RALB: 2.5 g/dL
  TBIL: 0.068 mg/dL
  TC: 81.4 mg/dL
  TG: 49.6 mg/dL
  TP: 5.4 g/dL
  gamma-GTP: 1 IU/L
24 h
  TERMINAL_BW: 230.2 g
  APTT: 16.1 s
  Bas: 0%
  Eos: 1%
  Fbg: 264 mg/dL
  Hb: 13 g/dL
  Ht: 40.9%
  Lym: 80.6%
  MCH: 21.3 pg
  MCHC: 31.9%
  MCV: 66.6 fL
  Mono: 2.8%
  Neu: 15.2%
  PT: 14.3 s
  Plat: 120.8 x10_4/uL
  RBC: 614.4 x10_4/ul
  Ret: 7.6%
  WBC: 87.8 x10_2/uL
  KIDNEY_L: 1 g
  KIDNEY_R: 1 g
  KIDNEY_TOTAL: 2 g
  LIVER: 11.2 g
  A/G: 0.9
  ALP: 1650.8 IU/L
  ALT: 48.2 IU/L
  AST: 77 IU/L
  BUN: 15.4 mg/dL
  CRE: 0.2 mg/dL
  Ca: 11.7 mg/dL
  Cl: 103.6 meq/L
  DBIL: 0.012 mg/dL
  GLC: 191.6 mg/dL
  IP: 8.8 mg/dL
  K: 4.1 meq/L
  LDH: 88.8 IU/L
  Na: 141.2 meq/L
  PL: 155.2 mg/dL
  RALB: 2.6 g/dL
  TBIL: 0.056 mg/dL
  TC: 86.8 mg/dL
  TG: 72.6 mg/dL
  TP: 5.6 g/dL
  gamma-GTP: 1.2 IU/L

Source: ChEMBL document CHEMBL3885861, “Open TG-GATES”
